Measured values from US20250380696A1, “METHOD FOR CONTROLLING UNDESIRED PLANTS AND PROMOTING GROWTH OF USEFUL PLANTS” (ISHIHARA SANGYO KAISHA, LTD., priority 2022, published 2025).

Legend:
Type in all cases: in vivo
[1] = system: Italian ryegrass (Lolium multiflorum); assay: (16) Herbicidal effect test (comparative test), pot, spray at 2.5 to 3.0 leaf stage; conditions: 4th day after spraying
Description: (§1) [formula] • X: growth inhibition rate when treated with α (g/ha) of compound A, • Y: growth inhibition rate when treated with β (g/ha) of compound B, • E: growth inhibition rate expected when treated with α (g/ha) of compound A and β (g/ha) of compound B (expected value).
Upland soil was put in a 1/1,000,000 hectare pot, and seeds of Italian ryegrass (Lolium multiflorum) were sown. When Italian ryegrass reached 2.5 to 3.0 leaf stage, a water-based suspension containing tiafenacil as the active ingredient, prepared by a conventional method for preparing a water-based suspension, a water-based suspension containing saflufenacil as the active ingredient (tradename: Sharpen, manufactured by BASF), a wettable powder containing fomesafen as the active ingredient, prepared by a conventional method for preparing a wettable powder, an emulsifiable concentrate containing fluthiacet-methyl as the active ingredient (tradename: Attackshot emulsifiable concentrate, manufactured by MARUWA Biochemical Co., Ltd.), a dry flowable containing carfentrazone-ethyl as the active ingredient (tradename: Task DF, manufactured by ISHIHARA SANGYO KAISHA, LTD.) or a water-based suspension containing pyraflufen-ethyl as the active ingredient (tradename: ECOPART flowable, manufactured by NIHON NOHYAKU CO., LTD.), and an emulsifiable concentrate containing S-metolachlor as the active ingredient (tradename: Dual Gold, manufactured by Syngenta) or a wettable powder containing metribuzin as the active ingredient (tradename: SENCOR wettable powder, manufactured by Bayer Crop Science), were diluted with water (in an amount corresponding to 200 liter per hectare) containing 0.5 vol % of an agricultural spreader (tradename: Destiny HC, manufactured by Winfield Solutions, LLC.) and sprayed by a small spray gun (model: W-101-132G, manufactured by ANEST IWATA Corporation). On the 4th day after spraying, the state of growth of the Italian ryegrass was visually observed, and the growth inhibition rate (%) was obtained in accordance with the evaluation standards described in the above (1) herbicidal effect test, and the results are shown in Table 16. Further, the expected value of the growth inhibition rate (%) was calculated in accordance with the Colby's formula described in the above (1) herbicidal effect test, and the results are also shown in Table 16.

[2] = system: horseweed (Conyza canadensis); assay: (14) Herbicidal effect test, pot, spray at diameter of 12 to 17 cm; conditions: 6th day after spraying
Description: as §1
Upland soil was put in a 1/1,000,000 hectare pot, and seeds of horseweed (Conyza canadensis) were sown. When the horseweed reached a diameter of 12 to 17 cm, a water-based suspension containing tiafenacil as the active ingredient, prepared by a conventional method for preparing a water-based suspension, and an emulsifiable concentrate containing S-metolachlor as the active ingredient (tradename: Dual Gold, manufactured by Syngenta), a wettable powder containing metribuzin as the active ingredient (tradename: SENCOR wettable powder, manufactured by Bayer Crop Science) or water dispersible granules containing pyroxasulfone as the active ingredient (tradename: Sakura, manufactured by Bayer Crop Science) were diluted with water (in an amount corresponding to 200 liter per hectare) containing 0.5 vol % of an agricultural spreader (tradename: Destiny HC, manufactured by Winfield Solutions, LLC.) and sprayed by a small spray gun (model: W-101-132G, manufactured by ANEST IWATA Corporation). On the 6th day after spraying, the state of growth of the horseweed was visually observed, and the growth inhibition rate (%) was obtained in accordance with the evaluation standards described in the above (1) herbicidal effect test, and the results are shown in Table 14. Further, the expected value of the growth inhibition rate (%) was calculated in accordance with the Colby's formula described in the above (1) herbicidal effect test, and the results are also shown in Table 14.

[3] = system: forage corn (cultivar: SNOW DENT OTOHA); assay: (18) Plant growth promotion effect test (corn), Italian ryegrass sown; conditions: 21st day after the sowing, above-ground part
Description: Upland soil was put in a 1/1,000,000 hectare pot, and seeds of Italian ryegrass (Lolium multiflorum) were sown. When the Italian ryegrass reached 2.7 to 3.1 leaf stage, a water-based suspension containing tiafenacil as the active ingredient, prepared by a conventional method for preparing a water-based suspension, and an emulsifiable concentrate containing S-metolachlor as the active ingredient (tradename: Dual Gold, manufactured by Syngenta), a wettable powder containing metribuzin as the active ingredient (tradename: SENCOR wettable powder, manufactured by Bayer Crop Science) or water dispersible granules containing pyroxasulfone as the active ingredient (tradename: Sakura, manufactured by Bayer Crop Science) were diluted with water (in an amount corresponding to 200 liter per hectare) containing 0.5 vol % of an agricultural spreader (tradename: Destiny HC, manufactured by Winfield Solutions, LLC.) and sprayed by a small spray gun (model: W-101-132G, manufactured by ANEST IWATA Corporation). Seeds of forage corn (cultivar: SNOW DENT OTOHA, manufactured by SNOW BRAND SEED Co., Ltd.) were sown in the pot after spraying. On the 21st day after the sowing, the above-ground part of the forage corn was reaped, and its weight was measured to obtain the raw weight.

[4] = system: Italian ryegrass (Lolium multiflorum); assay: (7) Herbicidal effect test, pot, spray at 2.8 to 3.0 leaf stage; conditions: 7th day after spraying
Description: as §1
Upland soil was put in a 1/1,000,000 hectare pot, and seeds of Italian ryegrass (Lolium multiflorum) were sown. When Italian ryegrass reached 2.8 to 3.0 leaf stage, a water-based suspension containing tiafenacil as the active ingredient, prepared by a conventional method for preparing a water-based suspension, and an emulsifiable concentrate containing pethoxamid as the active ingredient (tradename: Successor 600, manufactured by Stahler Suisse SA) or an emulsifiable concentrate containing dimethenamid-P as the active ingredient (tradename: Fieldstar P emulsifiable concentrate, manufactured by BASF) were diluted with water (in an amount corresponding to 200 liter per hectare) containing 0.5 vol % of an agricultural spreader (tradename: Destiny HC, manufactured by Winfield Solutions, LLC.) and sprayed by a small spray gun (model: W-101-132G, manufactured by ANEST IWATA Corporation). On the 7th day after spraying, the state of growth of the Italian ryegrass was visually observed, and the growth inhibition rate (%) was obtained in accordance with the evaluation standards described in the above (1) herbicidal effect test, and the results are shown in Table 7. Further, the expected value of the growth inhibition rate (%) was calculated in accordance with the Colby's formula described in the above (1) herbicidal effect test, and the results are also shown in Table 7.

CCc1cccc(C)c1N(C(=O)CCl)[C@@H](C)COC [S-metolachlor]
Growth inhibition rate (%) Measured value ([1]; Dose 750 g/ha): 3%
Growth inhibition rate (%) Measured value ([2]; Dose 7.5 g/ha): 0%
Growth inhibition rate (%) Measured value ([2]; Dose 375 g/ha): 0%
Growth inhibition rate (%) Measured value ([2]; Dose 750 g/ha): 0%
Raw weight (g) of forage corn ([3]; Dose 7.5 g/ha): 3.5 g
Raw weight (g) of forage corn ([3]; Dose 750 g/ha): 3.1 g

COC[C@H](C)N(C(=O)CCl)c1c(C)csc1C [dimethenamid-P]
Growth inhibition rate (%) Measured value ([4]; Dose 60 g/ha): 0%
Growth inhibition rate (%) Measured value ([4]; Dose 120 g/ha): 3%
Growth inhibition rate (%) Measured value ([4]; Dose 240 g/ha): 8%
Growth inhibition rate (%) Measured value ([4]; Dose 750 g/ha): 12%
Growth inhibition rate (%) Measured value ([4]; Dose 1500 g/ha): 15%

CSc1nnc(C(C)(C)C)c(=O)n1N [metribuzin]
inhibition at 18.75 g/ha ([1]; Lolium multiflorum, Dose 18.75 g/ha, read-out: Growth inhibition rate (%) Measured value): 7%
inhibition at 9.38 g/ha ([2]; Erigeron canadensis, Dose 9.38 g/ha, read-out: Growth inhibition rate (%) Measured value): 0%
inhibition at 550 g/ha ([2]; Erigeron canadensis, Dose 550 g/ha, read-out: Growth inhibition rate (%) Measured value): 5%
inhibition at 1100 g/ha ([2]; Erigeron canadensis, Dose 1100 g/ha, read-out: Growth inhibition rate (%) Measured value): 5%
Raw weight (g) of forage corn ([3]; Dose 225 g/ha): 4.7 g
Raw weight (g) of forage corn ([3]; Dose 550 g/ha): 5.6 g

CCOCCN(C(=O)CCl)C(=C(C)C)c1ccccc1 [pethoxamid]
Growth inhibition rate (%) Measured value ([4]; Dose 93.75 g/ha): 0%
Growth inhibition rate (%) Measured value ([4]; Dose 187.5 g/ha): 0%
Growth inhibition rate (%) Measured value ([4]; Dose 375 g/ha): 7%
Growth inhibition rate (%) Measured value ([4]; Dose 750 g/ha): 7%
Growth inhibition rate (%) Measured value ([4]; Dose 1500 g/ha): 12%

Cn1nc(C(F)(F)F)c(CS(=O)(=O)C2=NOC(C)(C)C2)c1OC(F)F [pyroxasulfone]
inhibition at 7.5 g/ha ([2]; Erigeron canadensis, Dose 7.5 g/ha, read-out: Growth inhibition rate (%) Measured value): 0%
inhibition at 250 g/ha ([2]; Erigeron canadensis, Dose 250 g/ha, read-out: Growth inhibition rate (%) Measured value): 0%
inhibition at 500 g/ha ([2]; Erigeron canadensis, Dose 500 g/ha, read-out: Growth inhibition rate (%) Measured value): 0%
Raw weight (g) of forage corn ([3]; Dose 7.5 g/ha): 5.8 g
Raw weight (g) of forage corn ([3]; Dose 125 g/ha): 3.3 g
Raw weight (g) of forage corn ([3]; Dose 250 g/ha): 3.8 g

COC(=O)CCNC(=O)C(C)Sc1cc(-n2c(=O)cc(C(F)(F)F)n(C)c2=O)c(F)cc1Cl (stereo not shown) [tiafenacil]
Growth inhibition rate (%) Measured value ([1]; Dose 12.5 g/ha): 38%
Growth inhibition rate (%) Measured value ([2]; Dose 6.25 g/ha): 23%
Raw weight (g) of forage corn ([3]; Dose 6.25 g/ha): 3.2 g
Growth inhibition rate (%) Measured value ([4]; Dose 6.25 g/ha): 15%
Growth inhibition rate (%) Measured value ([4]; Dose 12.5 g/ha): 37%
Growth inhibition rate (%) Measured value ([4]; Dose 25 g/ha): 33%
